Reference: article PMC11111408, “Concurrent inhibition of oncogenic and wild-type RAS-GTP for cancer therapy” (Nature, 2024)
Values joined by “and” are separate entries in the source; they are usually repeats but may differ in a detail not shown here. Equal entries are not always repeated.

Columns and labels:
[1] = molecular target: KRAS^G13D (Homo sapiens, UniProt P01116+P62937, G13D); assay: Cellular RAS–RAF (CRAF RBD) disruption, nano-BRET in U2OS cells; format: cell-based; conditions: (95% CI)
Description: KRAS4B, or other small GTPases, containing the indicated mutations were cloned in pNLF-N or pHTN plasmids for expression with an N-terminal nanoluciferase or HaloTag fusion, respectively. […] The following day, the cells were collected by Trypsin and reseeded in a white tissue culture-treated 96-well plate in OptiMem phenol red-free medium (Gibco) containing 4% FBS and a 1:1,000 dilution of NanoBRET 618 HaloTag ligand (Promega). For endpoint concentration response curves, vivazine nanoluciferase substrate was added to 1× concentration in OptiMem phenol red-free medium with 4% FBS. Varying concentrations of inhibitor were added and incubated for 1 or 4 h before the nano-BRET signal was measured on a Perkin Elmer Envision plate reader. For kinetic assays, endurazine nanoluciferase substrate was used in place of vivazine, and the plate was placed in a Cytation5 multi-mode reader pre-equilibrated to 37 °C and 5% CO2.

[2] = test system: NCI-H358 and MIA PaCa-2 cells expressing RTK constructs; assay: pERK (MSD) in NCI-H358 and MIA PaCa-2 cells expressing exogenous RTK or RTK fusion constructs; format: cell-based, human

CCn1c(-c2cc(N3CCN(C4CC4)CC3)cnc2[C@H](C)OC)c2c3cc(ccc31)-c1csc(n1)C[C@H](NC(=O)[C@H]1[C@@H]3COC[C@@H]31)C(=O)N1CCC[C@H](N1)C(=O)OCC(C)(C)C2 [RMC-7977]
EC50 [1]: 15.4 nM
pERK inhibition in MiaPaCa2 RTK fusion overexpression cells treated with RMC-7977 ([2]; CCDC6-RET, RMC-7977 0.046 nM): 114.81 and 112.21 and 120.39
pERK inhibition in MiaPaCa2 RTK fusion overexpression cells treated with RMC-7977 ([2]; CCDC6-RET, RMC-7977 0.412 nM): 62.51 and 66.85 and 62.20 and 56.39
pERK inhibition in MiaPaCa2 RTK fusion overexpression cells treated with RMC-7977 ([2]; CCDC6-RET, RMC-7977 1.235 nM): 40.55 and 38.10 and 39.55 and 34.25
pERK inhibition in MiaPaCa2 RTK fusion overexpression cells treated with RMC-7977 ([2]; CCDC6-RET, RMC-7977 3.704 nM): 15.40 and 16.48 and 16.06 and 15.78
pERK inhibition in MiaPaCa2 RTK fusion overexpression cells treated with RMC-7977 ([2]; CCDC6-RET, RMC-7977 11.111 nM): 5.99 and 6.04 and 6.20 and 6.24
pERK inhibition in MiaPaCa2 RTK fusion overexpression cells treated with RMC-7977 ([2]; CCDC6-RET, RMC-7977 33.333 nM): 4.07 and 4.10 and 4.14 and 4.22
pERK inhibition in MiaPaCa2 RTK fusion overexpression cells treated with RMC-7977 ([2]; CCDC6-RET, RMC-7977 100.000 nM): 3.63 and 3.37 and 3.48 and 3.54
pERK in NCI-H358 RTK overexpression cells treated with RMC-7977 ([2]; EGFR WT, RMC-7977 0.0152 nM): 104.75 and 140.08
pERK inhibition in H358 RTK overexpression cells ([2]; EGFR WT, RMC-7977 0.0152 nM): 88.81 and 100.67
pERK in NCI-H358 RTK overexpression cells treated with RMC-7977 ([2]; EGFR WT, RMC-7977 0.0457 nM): 101.07 and 109.46
pERK inhibition in H358 RTK overexpression cells ([2]; EGFR WT, RMC-7977 0.0457 nM): 80.53 and 78.65
pERK in NCI-H358 RTK overexpression cells treated with RMC-7977 ([2]; EGFR WT, RMC-7977 0.41 nM): 70.68 and 81.35
pERK inhibition in H358 RTK overexpression cells ([2]; EGFR WT, RMC-7977 0.41 nM): 58.96 and 57.93
pERK inhibition in H358 RTK overexpression cells ([2]; EGFR WT, RMC-7977 3.70 nM): 13.20 and 12.44
pERK inhibition in H358 RTK overexpression cells ([2]; EGFR WT, RMC-7977 11.11 nM): 5.97 and 5.02
pERK in NCI-H358 RTK overexpression cells treated with RMC-7977 ([2]; EGFR WT, RMC-7977 33.33 nM): 1.98 and 1.90
pERK inhibition in H358 RTK overexpression cells ([2]; EGFR WT, RMC-7977 33.33 nM): 3.17 and 3.29
pERK in NCI-H358 RTK overexpression cells treated with RMC-7977 ([2]; EGFR WT, RMC-7977 100.00 nM): 1.18 and 1.21
pERK inhibition in H358 RTK overexpression cells ([2]; EGFR WT, RMC-7977 100.00 nM): 3.04 and 2.54
pERK in NCI-H358 RTK overexpression cells treated with RMC-7977 ([2]; EGFR WT, RMC-7977 300.00 nM): 1.43 and 1.37
pERK inhibition in H358 RTK overexpression cells ([2]; EGFR WT, RMC-7977 300.00 nM): 2.79 and 3.22
pERK inhibition in MiaPaCa2 RTK fusion overexpression cells treated with RMC-7977 ([2]; EML4-ALK, RMC-7977 0.412 nM): 51.66 and 62.71 and 69.43
pERK inhibition in MiaPaCa2 RTK fusion overexpression cells treated with RMC-7977 ([2]; EML4-ALK, RMC-7977 1.235 nM): 29.82 and 34.96 and 36.22
pERK inhibition in MiaPaCa2 RTK fusion overexpression cells treated with RMC-7977 ([2]; EML4-ALK, RMC-7977 3.704 nM): 13.53 and 15.19 and 15.47
pERK inhibition in MiaPaCa2 RTK fusion overexpression cells treated with RMC-7977 ([2]; EML4-ALK, RMC-7977 11.111 nM): 5.91 and 5.92 and 5.79
pERK inhibition in MiaPaCa2 RTK fusion overexpression cells treated with RMC-7977 ([2]; EML4-ALK, RMC-7977 100.000 nM): 3.46 and 3.15 and 3.05
pERK in NCI-H358 RTK overexpression cells treated with RMC-7977 ([2]; FGFR2, RMC-7977 0.0152 nM): 105.65
pERK inhibition in H358 RTK overexpression cells ([2]; FGFR2, RMC-7977 0.0152 nM): 106.96
pERK in NCI-H358 RTK overexpression cells treated with RMC-7977 ([2]; FGFR2, RMC-7977 0.0457 nM): 88.22
pERK inhibition in H358 RTK overexpression cells ([2]; FGFR2, RMC-7977 0.0457 nM): 111.13
pERK in NCI-H358 RTK overexpression cells treated with RMC-7977 ([2]; FGFR2, RMC-7977 0.41 nM): 48.78
pERK inhibition in H358 RTK overexpression cells ([2]; FGFR2, RMC-7977 0.41 nM): 65.30
pERK inhibition in H358 RTK overexpression cells ([2]; FGFR2, RMC-7977 3.70 nM): 17.67
pERK inhibition in H358 RTK overexpression cells ([2]; FGFR2, RMC-7977 11.11 nM): 6.99
pERK in NCI-H358 RTK overexpression cells treated with RMC-7977 ([2]; FGFR2, RMC-7977 33.33 nM): 3.56
pERK inhibition in H358 RTK overexpression cells ([2]; FGFR2, RMC-7977 33.33 nM): 3.76
pERK in NCI-H358 RTK overexpression cells treated with RMC-7977 ([2]; FGFR2, RMC-7977 100.00 nM): 2.34
pERK inhibition in H358 RTK overexpression cells ([2]; FGFR2, RMC-7977 100.00 nM): 2.57
pERK in NCI-H358 RTK overexpression cells treated with RMC-7977 ([2]; FGFR2, RMC-7977 300.00 nM): 1.90
pERK inhibition in H358 RTK overexpression cells ([2]; FGFR2, RMC-7977 300.00 nM): 2.56
pERK inhibition in MiaPaCa2 RTK fusion overexpression cells treated with RMC-7977 ([2]; FGFR3-TACC3, RMC-7977 0.412 nM): 52.00 and 53.38 and 52.06 and 52.75
pERK inhibition in MiaPaCa2 RTK fusion overexpression cells treated with RMC-7977 ([2]; FGFR3-TACC3, RMC-7977 1.235 nM): 23.92 and 29.24 and 28.51 and 28.89
pERK inhibition in MiaPaCa2 RTK fusion overexpression cells treated with RMC-7977 ([2]; FGFR3-TACC3, RMC-7977 3.704 nM): 15.09 and 13.49 and 14.38 and 14.06
pERK inhibition in MiaPaCa2 RTK fusion overexpression cells treated with RMC-7977 ([2]; FGFR3-TACC3, RMC-7977 11.111 nM): 7.76 and 6.95 and 7.39 and 7.30
pERK inhibition in MiaPaCa2 RTK fusion overexpression cells treated with RMC-7977 ([2]; FGFR3-TACC3, RMC-7977 33.333 nM): 4.29 and 4.25 and 4.22
pERK inhibition in MiaPaCa2 RTK fusion overexpression cells treated with RMC-7977 ([2]; FGFR3-TACC3, RMC-7977 100.000 nM): 3.04 and 3.39 and 3.61 and 3.12
pERK in NCI-H358 RTK overexpression cells treated with RMC-7977 ([2]; GFP, RMC-7977 0.0152 nM): 115.00 and 107.70
